How the values were obtained:
TSLP [1] = assay: TSLP transcript levels in mouse ear epidermis after topical treatment (Q-RT-PCR); type: in vivo; details: WT mice
Excerpt: Mice. […] Real time PCR. Total RNA was reverse transcribed using hexamers, followed by Q-PCR, as reported (Li et al., 2005). The GC agonist fluocinolone acetonide (FA) was applied to ears of mice concomitantly treated with the “low-calcemic” Vitamin D3 (VitD3) analog MC903 (Calcipotriol; hereafter called MC) to trigger TSLP expression (Li et al., 2006). […] As expected, the expression of the GC-inducible GPX3 (glutathione peroxidase 3) gene which harbours a (+)GRE (Tuckermann et al., 1999) was enhanced by FA (FIG. 10) and inhibited by RU co-treatment, while FA or RU had no effect on MC-dependent expression of the CYP24A1 gene (a VitD3 target) (FIG. 10). […] Although the basal TSLP level was similar in vehicle-treated WT and GR^ep−/− mice, FA blocked MC-induced TSLP expression in WT, but not in GR^ep−/− mice (not shown).

[2] = tested on: GPX3 (glutathione peroxidase 3) gene, (+)GRE; assay: GPX3 transcript levels in mouse ear epidermis after topical treatment (Q-RT-PCR); type: in vivo; details: WT mice, ears, topical FA, FIG. 10
Excerpt: (§1) Mice. […] Real time PCR. Total RNA was reverse transcribed using hexamers, followed by Q-PCR, as reported (Li et al., 2005). The GC agonist fluocinolone acetonide (FA) was applied to ears of mice concomitantly treated with the “low-calcemic” Vitamin D3 (VitD3) analog MC903 (Calcipotriol; hereafter called MC) to trigger TSLP expression (Li et al., 2006). […] As expected, the expression of the GC-inducible GPX3 (glutathione peroxidase 3) gene which harbours a (+)GRE (Tuckermann et al., 1999) was enhanced by FA (FIG. 10) and inhibited by RU co-treatment, while FA or RU had no effect on MC-dependent expression of the CYP24A1 gene (a VitD3 target) (FIG. 10).

[3] = tested on: CYP24A1 gene (a VitD3 target); assay: CYP24A1 transcript levels in mouse ear epidermis after topical treatment (Q-RT-PCR); type: in vivo; details: mouse ears, FIG. 10
Excerpt: as §1

TSLP [4] = assay: Nuclear run-on assay of TSLP expression; type: in vivo, mouse
Excerpt: Nuclear run-on, EMSA, 3C and Luciferase assays. Nuclear Run-on and EMSA (Carey and Smale., 2001), 3C (Liu et al., 2005) and Luciferase assays (Promega kit) were as described. […] Although the basal TSLP level was similar in vehicle-treated WT and GR^ep−/− mice, FA blocked MC-induced TSLP expression in WT, but not in GR^ep−/− mice (not shown).

[5] = tested on: IR nGRE (pGL3(VDRE) IR1 nGRE luciferase reporter); assay: Luciferase reporter assay in A549 cells, pGL3(VDRE) IR nGRE plasmids; type: cell-based, human
Description: Luciferase reporter assay. A549 cells seeded on 24-well tissue culture plates overnight at 70% confluency were transfected with 100 ng pCMV β galactosidase, 200 ng pGL3 reporter plasmids and wherever indicated, with 600 ng pSG5 hVDR plasmid (Green et al., 1988) into each well and maintained in medium containing charcoal treated FCS. 24 hours post-transfection, medium was changed and different compounds were added to it for 6 hours. […] Luciferase assay was carried out as instructed (Promega). Normalized values are reported as the mean±SEM; each value originates from at least three individual transfections with assays performed in duplicate.
To investigate whether additional DNA elements could be required to generate a repressing activity, the TSLP IR1 nGRE was inserted upstream of an enhancerless SV40 early promoter located 5′ to the luciferase coding sequence of pGL3 vector, A VDRE separated from the IR1 nGRE by a 314 bp-long DNA segment devoid of any known transregulator binding site (not shown) was inserted to generate a luciferase-expressing reporter plasmid (pGL3(VDRE) IR1 nGRE, FIG. 4), which was transfected into A549 cells, followed by addition of VitD3 and/or FA.
To investigate whether the 1 bp spacer between the inverted repeated motifs of TSLP IR1 nGRE was critical for its repressing function, pGL3-based luciferase plasmids containing the VDRE and TSLP nGRE motifs spaced by 0 to 5 bases (IR0 to IR5 nGREs) were transfected into A549 cells.

[6] = tested on: (+)GRE (PGL3(VDRE) (+)GRE luciferase reporter); assay: Luciferase reporter assay in A549 cells, PGL3(VDRE) (+)GRE vector; type: cell-based, human; details: FA
Description: Luciferase reporter assay. A549 cells seeded on 24-well tissue culture plates overnight at 70% confluency were transfected with 100 ng pCMV β galactosidase, 200 ng pGL3 reporter plasmids and wherever indicated, with 600 ng pSG5 hVDR plasmid (Green et al., 1988) into each well and maintained in medium containing charcoal treated FCS. 24 hours post-transfection, medium was changed and different compounds were added to it for 6 hours. Final concentrations of the compounds are: FA, 500 nM; Dex or RU24858, 300 nM or 500 nM (wherever 300 nM Dex or RU was used, it is indicated in the figure, in all other cases, 500 nM concentration was used); active vitamin D3, 1 μM; IL-1β, 5 ng/ml; BAY 11-7082, 5 μM, JNK inhibitor II, 25 μM. Luciferase assay was carried out as instructed (Promega). Normalized values are reported as the mean±SEM; each value originates from at least three individual transfections with assays performed in duplicate. […]

- expression of GPX3 gene [2]: enhanced
Compound: CC1(C)O[C@@H]2C[C@H]3[C@@H]4C[C@H](F)C5=CC(=O)C=C[C@]5(C)[C@@]4(F)[C@@H](O)C[C@]3(C)[C@]2(C(=O)CO)O1 [FA, fluocinolone acetonide]
- MC-induced TSLP expression, effect of FA (TSLP [1]): blocked
- inhibition of basal TSLP RNA level (TSLP [1]; ears, topical FA): ~50%
- MC-induced increase of TSLP RNA, effect of FA (TSLP [1]; ears, topical, MC903 co-treatment): fully blocked
- effect on MC-dependent expression of the CYP24A1 gene [3]: no effect
- nature of GR-mediated FA inhibition of TSLP expression (TSLP [4]): transcriptional
- reporter genes containing the IR1 nGRE DBS of various genes ([5]; 6 hours, FIG. 13): induces repression
- repressing activity with mutant IR1 nGRE to which recombinant GR does not bind ([5]; FA): no FA-inducible repressing activity
- basal and VDRE-mediated VitD3-induced luciferase expression in presence of IR1 nGRE ([5]; pGL3(VDRE) IR1 nGRE, FA addition, FIG. 11): decreased expression
- change in basal and VitD3-induced luciferase activity for IR3, IR4 and IR5 nGREs ([5]; upon FA addition): no significant change
- decrease in basal and VitD3-induced luciferase activity for IR1 and IR2 compared with IR0 nGRE ([5]; upon FA addition): stronger
- luciferase expression when IR1 nGRE replaced by a (+)GRE [6]: increase

From patent publication US20140093884A1, “Process for Identifying Novel Anti-Inflammatory Molecules with Reduced Direct Transrepression of Genes Induced by Glucocorticoids” (UNIVERSITE DE STRASBOURG, priority 2011, published 2014)
